What was measured:
[1] = Aerosol performance by Next Generation Impactor (NGI) from multidose dry powder inhaler; assay type: physicochemical; details: Example 3 powder formulation; for Mid Fine particle Fraction: 2.0 to 5.0 microns; for Delivered Dose: multidose DPI of WO 2004/012801, 3 doses; for Mid Fine Particle Mass: particle size between 2.0 and 5.0 microns; for Fine Particle Mass: particle size equal to or lower than 5.0 microns; for Fine Particle Fraction: ratio fine particle mass to delivered dose
Text: After aerosolization of 3 doses from the inhaler device, the NGI apparatus was disassembled and the amounts of drug deposited in the stages were recovered by washing with a solvent mixture and then quantified by High-Performance Liquid Chromatography (HPLC). […] (v) the fine particle fraction (FPF) which is the ratio between the fine particle mass and the delivered dose; and (vi) the MMAD.

[2] = micronized active ingredient as used in Example 3
Method: The size of the particles active is determined by measuring the characteristic equivalent sphere diameter, known as volume diameter, by laser diffraction.
Microparticles as obtained in Example 2 were used. […] Beclometasone dipropionate (BDP) having the following particle size was used: d(v0.1)=0.7 micron; d(v0.5)=1.5 micron; and d(v0.9)=2.8 micron.

With `C[N+]1(C)CCC(OC(=O)C(O)(c2ccccc2)C2CCCC2)C1` (racemic) [GB, glycopyrronium bromide] the “Extrafine Particle Fraction <1 μm” value [1] was 9.8%, the “Extrafine Particle Fraction <2 μm” value [1] was 26.4% and the “Extrafine Particle Mass <1 μm” value [1] was 1.1 µg. The “Extrafine Particle Mass <2 μm” value [1] was 2.9 µg, the MMAD [1] was 1.9 μm and the “Mid Fine particle Fraction” value [1] was 21.6%. For the same compound, the “Delivered Dose” value [1] was 11.1 µg, the “Mid Fine Particle Mass” value [1] was 2.4 µg and the “Fine Particle Mass” value [1] was 5.4 µg. For the same compound, the “Fine Particle Fraction” value [1] was 48.1%.
In the case of `CCC(=O)OCC(=O)[C@@]1(OC(=O)CC)[C@@H](C)C[C@H]2[C@@H]3CCC4=CC(=O)C=C[C@]4(C)[C@@]3(Cl)[C@@H](O)C[C@@]21C` [BDP, beclometasone dipropionate], the “Extrafine Particle Fraction <1 μm” value [1] is reported as 13.9%, the “Extrafine Particle Fraction <2 μm” value [1] is reported as 32.1% and the “Extrafine Particle Mass <1 μm” value [1] is reported as 12.4 µg. For the same compound, the “Extrafine Particle Mass <2 μm” value [1] was 28.5 µg, the MMAD [1] was 1.6 μm and the “Mid Fine particle Fraction” value [1] was 17.1%. For the same compound, the “Delivered Dose” value [1] was 88.5 µg, the “Mid Fine Particle Mass” value [1] was 15.2 µg and the “Fine Particle Mass” value [1] was 43.6 µg. For the same compound, the “Fine Particle Fraction” value [1] was 49.3%, the “d(v0.1)” value [2] was 0.7 micron and the “d(v0.5)” value [2] was 1.5 micron. The “d(v0.9)” value [2] was 2.8 micron.
